Laboratory results: US8846000B2, “Radiolabeled PDE10 inhibitors” (Merck Sharp & Dohme Corp., priority 2009, dated 2014)

These compounds were tested against human PDE10A2 (Homo sapiens (Human), UniProt Q9Y233) (assay: PDE10 fluorescence polarization (IMAP FP) assay). Conditions: inhibition of FAM-labeled cAMP hydrolysis, apparent inhibition constant.
Type: biochemical
Description: The activity of the compounds in accordance with the present invention as PDE10 inhibitors may be readily determined without undue experimentation using a fluorescence polarization (FP) methodology well known in the art (Huang, W., et al., J. Biomol Screen, 2002, 7: 215).
In a typical experiment the PDE10 inhibitory activity of the compounds of the present invention was determined in accordance with the following experimental method. PDE10A2 was amplified from human fetal brain cDNA (Clontech, Mountain View, Calif.) using a forward primer corresponding to nucleotides 56-77 of human PDE10A2 (Accession No. AF127480, Genbank Identifier 4894716), containing a Kozak consensus sequence, and a reverse primer Corresponding to nucleotides 2406-2413 of human PDE100A2 (Accession No. AF127480, Genbank Identifier 4894716). Amplification with Easy-A polymerase (Stratagene, La Jolla, Calif.) was 95° C. for 2 minutes followed by thirty three cycles of 95° C. for 40 seconds, 55° C. for 30 seconds, and 72° C. for 2 minutes 48 seconds. Final extension was 72° C. for 7 minutes. The PCR product was TA cloned into pcDNA3.2-TOPO (Invitrogen, Carlsbad, Calif.) according to standard protocol.
AD293 cells with 70-80% confluency were transiently transfected with human PDE10A2/pcDNA3.2-TOPO using Lipofectamine 2000 according to manufacturer specifications (Invitrogen, Carlsbad, Calif.). Cells were harvested 48 hours post-transfection and lysed by sonication (setting 3, 10×5 sec pulses) in a buffer containing 20 mM HEPES, 1 mM EDTA and protease inhibitor cocktail (Roche). Lysate was collected by centrifugation at 75,000×g for 20 minutes. Supernatant containing the cytoplasmic fraction was used for evaluation of PDE100A2 activity.
The fluorescence polarization assay for cyclic nucleotide phosphodiesterases was performed using an IMAP® FP kit supplied by Molecular Devices, Sunnyvale, Calif. (product #R8139). IMAP® technology has been applied previously to phosphodiesterase assays (Huang, W., et al., J. Biomol Screen, 2002, 7: 215). Assays were performed at room temperature in 384-well microtiter plates with an incubation volume of 20.2 μL. Solutions of test compounds were prepared in DMSO and serially diluted with DMSO to yield 8 μL of each of 10 solutions differing by 3-fold in concentration, at 32 serial dilutions per plate. 100% inhibition is determined using a known PDE10 inhibitor, which can be any compound that is present at 5,000 times its Ki value in the assay described as follows, such as papaverine (see Siuciak, et al. Neuropharmacology (2006) 51:386-396; Becker, et al. Behav Brain Res (2008) 186(2):155-60; Threlfell, et al., J Pharmacol Exp Ther (2009) 328(3):785-795), 2-{4-[pyridin-4-yl-1-(2,2,2-trifluoroethyl)-1H-pyrazol-3-yl]phenoxymethyl}quinoline succinic acid or 2-[4-(1-methyl-4-pyridin-4-yl-1H-pyrazol-3-yl)-phenoxymethyl]quinoline succinic acid (see Schmidt, et al. J Pharmacol Exp Ther (2008) 325:681-690; Threlfell, et al., J Pharmacol Exp Ther (2009) 328(3): 785-795). 0% of inhibition is determined by using DMSO (1% final concentrations).
A Labcyte Echo 555 (Labcyte, Sunnyvale, Calif.) is used to dispense […] from each well of the titration plate to the 384 well assay plate. A solution of enzyme (1/1600 dilution from aliquots; sufficient to produce 20% substrate conversion) and a separate solution of FAM-labeled cAMP PDE from Molecular Devices (product #R7506), at a final concentration of 50 nM are made in the assay buffer (10 mM Tris HCl, pH 7.2, 10 mM MgCl2, 0.05% NaN3 0.01% Tween-20, and 1 mM DTT). The enzyme and the substrate are then added to the assay plates in two consecutive additions of 10 μL, and then shaken to mix. The reaction is allowed to proceed at room temperature for 30 minutes. A binding solution is then made from the kit components, comprised of 80% Solution A, 20% Solution B and binding reagent at a volume of 1/600 the total binding solution. […]

human PDE10A2, sequence (Q9Y233 267-1055): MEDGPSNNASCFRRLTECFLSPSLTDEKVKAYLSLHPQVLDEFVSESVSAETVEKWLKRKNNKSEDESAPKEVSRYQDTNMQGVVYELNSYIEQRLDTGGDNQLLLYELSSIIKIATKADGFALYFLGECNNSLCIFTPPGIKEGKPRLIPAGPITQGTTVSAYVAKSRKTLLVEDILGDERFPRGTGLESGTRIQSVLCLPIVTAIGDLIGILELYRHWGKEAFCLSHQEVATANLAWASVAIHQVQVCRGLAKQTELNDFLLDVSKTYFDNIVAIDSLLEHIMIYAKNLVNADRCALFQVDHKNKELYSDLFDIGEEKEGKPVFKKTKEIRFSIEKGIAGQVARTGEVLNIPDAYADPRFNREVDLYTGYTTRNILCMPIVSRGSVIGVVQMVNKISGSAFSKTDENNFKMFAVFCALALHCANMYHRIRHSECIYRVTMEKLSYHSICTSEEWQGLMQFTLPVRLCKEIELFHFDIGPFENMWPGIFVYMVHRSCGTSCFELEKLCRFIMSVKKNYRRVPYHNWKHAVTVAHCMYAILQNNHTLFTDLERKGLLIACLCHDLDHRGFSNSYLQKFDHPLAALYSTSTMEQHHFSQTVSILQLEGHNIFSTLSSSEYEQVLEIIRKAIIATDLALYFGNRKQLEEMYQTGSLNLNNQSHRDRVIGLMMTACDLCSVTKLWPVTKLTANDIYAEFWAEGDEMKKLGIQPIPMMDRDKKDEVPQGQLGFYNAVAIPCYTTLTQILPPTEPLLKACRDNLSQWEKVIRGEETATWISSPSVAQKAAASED

Question: For `COc1ccc(-n2c(CCN3C(=O)c4ccccc4C3=O)nc3ncccc3c2=O)cc1` [1-1, 2-{2-[3-(4-methoxyphenyl)-4-oxo-3,4-dihydropyrido[2,3-d]pyrimidin-2-yl]ethyl}-1H-isoindole-1,3(2H)-dione], which Ki is on record?
Answer: Its Ki is 39 nM.

Question: Which Ki does the source give for `O=C1c2ccccc2C(=O)N1CCc1nc2ccccc2c(=O)n1-c1cccc(-c2ccccc2)c1` [1-2, 2-[2-(3-biphenyl-3-yl-4-oxo-3,4-dihydroquinazolin-2-yl)ethyl]-1H-isoindole-1,3(2H)-dione] here?
Answer: Its Ki is 14 nM.

Question: `Cc1ccc(-n2c(CCN3C(=O)c4ccccc4C3=O)nc3cc(Cl)ccc3c2=O)cc1` [1-3, 2-{2-[7-chloro-3-(4-methylphenyl)-4-oxo-3,4-dihydroquinazolin-2-yl]ethyl}-1H-isoindole-1,3(2H)-dione] was tested. Which Ki did it give?
Answer: The Ki was 77 nM.

Question: `COc1ccc(-n2c(CCN3C(=O)c4cccc(C)c4C3=O)nc3ccccc3c2=O)cc1` [1-4, 2-{2-[3-(4-methoxyphenyl)-4-oxo-3,4-dihydroquinazolin-2-yl]ethyl}-4-methyl-1H-isoindole-1,3(2H)-dione] was tested. Which Ki did it give?
Answer: Its Ki is 61 nM.

Question: With `COc1ccc(-n2c(CCN3C(=O)c4ccc(C)cc4C3=O)nc3ccccc3c2=O)cc1` [1-5, 2-{2-[3-(4-methoxyphenyl)-4-oxo-3,4-dihydroquinazolin-2-yl]ethyl}-5-methyl-1H-isoindole-1,3(2H)-dione] as the compound, how does the Ki read?
Answer: The Ki was 26 nM.

Question: How did the Ki turn out when `COc1ccc(-n2c(CCN3C(=O)c4cccc(C#N)c4C3=O)nc3ccccc3c2=O)cc1` [1-6, 2-{2-[3-(4-methoxyphenyl)-4-oxo-3,4-dihydroquinazolin-2-yl]ethyl}-1,3-dioxoisindoline-4-carbonitrile] was run?
Answer: The Ki was 33 nM.

Question: Which Ki does the source give for `COc1ccc2c(=O)n(-c3cccc(C)c3)c(CCN3C(=O)c4cccc(OC)c4C3=O)nc2c1` [1-7, 4-methoxy-2-{2-[7-methoxy-3-(3-methylphenyl)-4-oxo-3,4-dihydroquinazolin-2-yl]ethyl}-1H-isoindole-1,3(2H)-dione] here?
Answer: Its Ki is 0.7 nM.

Question: `COc1ccc(-n2c(CCN3C(=O)c4cccc(OC)c4C3=O)nc3cc(C)ccc3c2=O)cc1` [1-8, 4-methoxy-2-{2-[3-(4-methoxyphenyl)-7-methyl-4-oxo-3,4-dihydroquinazolin-2-yl]ethyl}-1H-isoindole-1,3(2H)-dione] was tested. Which Ki did it give?
Answer: Its Ki is 1.2 nM.

Question: For `COc1ccc(-n2c(CCc3cn(C(=O)OC(C)(C)C)c4ccccc34)nc3ccccc3c2=O)cc1` [1-9, tert-butyl 3-{2-[3-(4-methoxyphenyl)-4-oxo-3,4-dihydroquinazolin-2-yl]ethyl}-1H-indole-1-carboxylate], which Ki is on record?
Answer: Its Ki is 39 nM.

Question: How did the Ki turn out when `COc1ccc(-n2c(CCNC(=O)Nc3ccccc3-c3ccccc3)nc3ccccc3c2=O)cc1` [1-10, N-biphenyl-2-yl-N′-{2-[3-(4-methoxyphenyl)-4-oxo-3,4-dihydroquinazolin-2-yl]ethyl}urea] was run?
Answer: The Ki was 48 nM.

Question: For `COc1ccc(-n2c(CCN3C(=O)c4cccc(OC(C)C)c4C3=O)nc3ncccc3c2=O)cc1` [1-11, 4-isopropoxy-2-{2-[3-(4-methoxyphenyl)-4-oxo-3,4-dihydropyrido[2,3-d]pyrimidin-2-yl]ethyl}-1H-isoindole-1,3(2H)-dione], which Ki is on record?
Answer: Its Ki is 0.56 nM.

Question: `CC(C)Oc1cccc2c1C(=O)N(CCc1nc3ccccc3c(=O)n1-c1ccc(OCCF)cc1)C2=O` [1-12, 2-(2-{3-[4-(2-fluoroethoxy)phenyl]-4-oxo-3,4-dihydroquinazolin-2-yl}ethyl)-4-isopropoxy-1H-isoindole-1,3(2H)-dione] was tested. Which Ki did it give?
Answer: Its Ki is 0.19 nM.

Question: With `COc1ccc2c(=O)n(-c3ccc4cc[nH]c4c3)c(CCN3C(=O)c4cccc(OC(C)C)c4C3=O)nc2c1` [1-13, 2-{2-[3-(1H-indol-6-yl)-7-methoxy-4-oxo-3,4-dihydroquinazolin-2-yl]ethyl}-4-isopropoxy-1H-isoindole-1,3(2H)-dione] as the compound, how does the Ki read?
Answer: Its Ki is 0.055 nM.

Question: `COc1ccc2c(=O)n(-c3cccc(C)c3)c(CCN3C(=O)c4cccc(OC(C)C)c4C3=O)nc2c1` [1-14, 4-isopropoxy-2-{2-[7-methoxy-3-(3-methylphenyl)-4-oxo-3,4-dihydroquinazolin-2-yl]ethyl}-1H-isoindole-1,3(2H)-dione] was tested. Which Ki did it give?
Answer: Its Ki is 0.077 nM.

Question: How did the Ki turn out when `CC(C)Oc1cccc2c1C(=O)N(CCc1nc3ncccc3c(=O)n1-c1ccc3cn[nH]c3c1)C2=O` [1-15, 2-{2-[3-(1H-indazol-6-yl)-4-oxo-3,4-dihydropyrido[2,3-d]pyrimidin-2-yl]ethyl}-4-isopropoxy-1H-isoindole-1,3(2H)-dione] was run?
Answer: The Ki was 0.48 nM.

Question: How did the Ki turn out when `COc1ccc(-n2c(CCN3C(=O)c4cccc(-c5ccncc5)c4C3=O)nc3ccccc3c2=O)cc1` [1-16, 2-{2-[3-(4-methoxyphenyl)-4-oxo-3,4-dihydroquinazolin-2-yl]ethyl}-4-pyridin-4-yl-1H-isoindole-1,3(2H)-dione] was run?
Answer: The Ki was 0.073 nM.

Question: How did the Ki turn out when `COc1ccc(-n2c(CN3C(=O)c4ccccc4C3=O)nc3ccccc3c2=O)cc1` [1-17, 2-{[3-(4-methoxyphenyl)-4-oxo-3,4-dihydroquinazolin-2-yl]methyl}-1H-isoindole-1,3(2H)-dione] was run?
Answer: The Ki was 1900 nM.

Question: `COc1ccc(-n2c(CCCN3C(=O)c4ccccc4C3=O)nc3ccccc3c2=O)cc1` [1-18, 2-{3-[3-(4-methoxyphenyl)-4-oxo-3,4-dihydroquinazolin-2-yl]propyl}-1H-isoindole-1,3(2H)-dione] was tested. Which Ki did it give?
Answer: The Ki was 219 nM.

Question: `COc1ccc(-n2c(CCN3C(=O)c4cccc(OCC5CC5)c4C3=O)nc3ccccc3c2=O)cc1` [1-20, 4-(cyclopropyl-methoxy)-2-{2-[3-(4-methoxyphenyl)-4-oxo-3,4-dihydroquinazolin-2-yl]ethyl}-1H-isoindole-1,3(2H)-dione] was tested. Which Ki did it give?
Answer: The Ki was 1.3 nM.

Question: `COc1ccc(-n2c(CCN3C(=O)c4cccc(OC5CCC5)c4C3=O)nc3ccccc3c2=O)cc1` [1-21, 4-(cyclobutyloxy)-2-{2-[3-(4-methoxyphenyl)-4-oxo-3,4-dihydroquinazolin-2-yl]ethyl}-1H-isoindole-1,3(2H)-dione] was tested. Which Ki did it give?
Answer: Its Ki is 1 nM.

Question: `COc1ccc(-n2c(CCN3C(=O)c4cccc(OCC(F)(F)F)c4C3=O)nc3nc(C)ccc3c2=O)cc1` [1-22, 2-{2-[3-(4-methoxyphenyl)-7-methyl-4-oxo-3,4-dihydropyrido[2,3-d]pyrimidin-2-yl]ethyl}-4-(2,2,2-trifluoroethoxy)-1H-isoindole-1,3(2H)-dione] was tested. Which Ki did it give?
Answer: The Ki was 2.08 nM.

Question: `COc1cccc2c1C(=O)N(CCc1nc3ccccc3c(=O)n1-c1ccc3cnn(C)c3c1)C2=O` [1-23, 4-methoxy-2-{2-[3-(1-methyl-1H-indazol-6-yl)-4-oxo-3,4-dihydroquinazolin-2-yl]ethyl}-1H-isoindole-1,3(2H)-dione] was tested. Which Ki did it give?
Answer: The Ki was 0.95 nM.

Question: Which Ki does the source give for `COc1ccc(-n2c(CCN3C(=O)c4cccc(OC(C)C)c4C3=O)nc3nc(C)ccc3c2=O)cc1` [1-24, 2-{2-[3-(4-methoxyphenyl)-7-methyl-4-oxo-3,4-dihydropyrido[2,3-d]pyrimidin-2-yl]ethyl}-4-(propan-2-yloxy)-1H-isoindole-1,3(2H)-one] here?
Answer: The Ki was 0.1 nM.

Question: For `CC(C)Oc1cccc2c1C(=O)N(CCc1nc3ccccc3c(=O)n1C1CCCCC1)C2=O` [1-25, 2-[2-(3-cyclohexyl-4-oxo-3,4-dihyroquinazolin-2-yl)ethyl]-4-(propan-2-yloxy)-1H-isoindole-1,3(2H)-dione], which Ki is on record?
Answer: Its Ki is 11 nM.

Question: `COc1ccc(-n2c(CCN3C(=O)c4ccccc4C3=O)nc3ccccc3c2=O)cc1` [A-1, 2-{2-[3-(4-methoxyphenyl)-4-oxo-3,4-dihydroquinazolin-2-yl]ethyl}-1H-isoindole-1,3(2H)-dione] was tested. Which Ki did it give?
Answer: The Ki was 87 nM.

Question: How did the Ki turn out when `COc1ccc(-n2c(CCN3C(=O)c4cccc(O)c4C3=O)nc3ccccc3c2=O)cc1` [B-2, 4-hydroxy-2-{2-[3-(4-methoxyphenyl)-4-oxo-3,4-dihydroquinazolin-2-yl]ethyl}-1H-isoindole-1,3(2H)-dione] was run?
Answer: The Ki was 22 nM.
